Activity calls are given as the source filed them.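 How the source made its calls: active means compounds giving half or more protection of infected cells from virus-caused growth loss, again on retest; inactive means the rest.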 Where a SMILES comes first, the peptide text is derived from it.
Test system: CEM cells HIV-1 protection, formazan growth assay
Assay: NCI AIDS Antiviral Assay
Conditions: for IC50: measured here: growth of uninfected CEM cells
In short: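 Protection of CEM cells against HIV-1 was scored from cell growth (soluble formazan) across five concentrations, with parallel uninfected cells. Lack of protection may reflect toxicity.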

| Structure (SMILES) | EC50 | IC50 | outcome |
| --- | --- | --- | --- |
| C=CCSCC1Nc2cc(Cl)c(S(N)(=O)=O)cc2S(=O)(=O)N1C (stereo not drawn) | > 234 µM | 91.2 µM |  |
| COc1cc(C(=O)CC2OC(=O)C(Cl)=C2Cl)ccc1Cl (stereo not drawn) | > 741 µM | 145 µM |  |
| CCOC(=O)c1cc(C2(O)CCN(CC(C)CC)C2=O)c(-c2cc(C)no2)[nH]1 (stereo not drawn) | > 200 µM | > 200 µM |  |
| O=c1c2c(-c3ccccc3)onc2n(-c2ccccc2)c(=O)n1-c1ccccc1 | > 200 µM | 10.5 µM |  |
| NC1(C(=O)N2CCCC2C(=O)O)CCCC1 (stereo not drawn) (HELM PEPTIDE1{[NC1(C(=O)[*:2])CCCC1].[O=C(O)C1CCCN1[*:1]]}$$$$V2.0) | > 200 µM | > 200 µM |  |
| CC(CO)CCNc1ncnc2c1ncn2CCC(=O)O (stereo not drawn) | > 200 µM | > 200 µM |  |
| O=C(OCc1ccccc1)c1ccc(NCc2cc(O)ccc2O)cc1 |  |  | inactive |
| N#CC1=C2SCCN2C(=O)C(C#N)C12CCCCC2 (stereo not drawn) | > 200 µM | > 200 µM |  |
| Clc1ccc(C2=Nc3ccccc3SC(c3cccs3)C2)cc1 (stereo not drawn) | > 7.59 µM | > 7.59 µM |  |
| C#CC1(O)CCC2[C@@H]3CCc4cc(Oc5nc(F)nc(-c6c(C)c(C(=O)OCC)n7ccccc67)n5)ccc4C3CC[C@@]21C (stereo partly drawn) | > 100 µM | > 100 µM |  |
| CC1=CC=C2c3ccccc3C=CN2C(=O)C1 | > 200 µM | 89.1 µM |  |
| O=C(CC(C(=O)c1cccs1)c1ccsc1)c1cccs1 (stereo not drawn) | > 200 µM | 40.7 µM |  |
| COCN1C(=O)[C@@H]2CCCN2C(=O)c2ccc(Cl)cc21 | > 200 µM | > 200 µM |  |
| CN1CN(c2ccccc2)C2(CCN(CC(C)(c3ccc(F)cc3)C3OCCCO3)CC2)C1=O (stereo not drawn) | > 200 µM | 107 µM |  |
| N#CC(C(=O)/C(=N\NC(N)=O)C(C#N)c1ccccc1)c1ccccc1 (stereo not drawn) | > 724 µM | > 724 µM |  |
| C(=Nc1ccc(/C=C\c2ccnc3ccccc23)cc1)Nc1ccc(/C=C\c2ccnc3ccccc23)cc1 | > 7.59 µM | 5.62 µM |  |
| CCN(CC)CC(O)CN(CC(=O)Nc1c(C)cccc1C)CC(C)C (stereo not drawn) | > 200 µM | > 200 µM |  |
| CC(=O)Oc1cc2c(c3ncccc13)OC(C)(C)C2 | > 200 µM | 11 µM |  |
| COc1ccccc1NC(=O)C(=O)C1C(=O)Nc2ccccc2S1=O (stereo not drawn) |  |  | inactive |
| Cc1ccc(C2[C@H]3C(=O)N(c4ccc(Cc5ccc(N6C(=O)[C@@H]7ON(c8ccccc8)C(c8ccc(C)cc8)[C@@H]7C6=O)cc5)cc4)C(=O)[C@H]3ON2c2ccccc2)cc1 (stereo partly drawn) | > 6.76 µM | > 6.76 µM |  |
| CC1CCCN2C(=O)CN(N3CCOCC3)CC(=O)N12 (stereo not drawn) | > 200 µM | > 200 µM |  |

| Structure (SMILES) | EC50 | IC50 | outcome |
| --- | --- | --- | --- |
| C=C1CC(Cn2cc(C)c(=O)[nH]c2=O)(c2ccc(Cl)cc2)OC1=O (stereo not drawn) | > 20 µM | 0.617 µM |  |
| COC(=O)c1ccccc1OCc1cc(=O)oc2ccc(C)cc12 |  |  | inactive |
| CCOc1ccc(/C=N/NC(=O)C(=O)N/N=C/c2ccc(OCC)c(OCC)c2)cc1OCC | > 200 µM | > 200 µM |  |
| Cc1ccc(/C=C2/N=C(N/N=C\C(O)C(O)C(O)CO)NC2=O)cc1 (stereo not drawn) | > 200 µM | 110 µM | inactive |
| COC(=O)C1=C(C)C(=O)C2(CCCCCC2C(=O)OC)C1 (stereo not drawn) | > 200 µM | > 200 µM |  |
| CSc1nc2[nH]c(=O)c(C)nc2c(=O)[nH]1 | > 23.4 µM | > 23.4 µM |  |
| COC(=O)c1cc(C(=CCC[C@H]2CC[C@@]3(C)C(CCC4C3CC[C@@]3(C)C4CC[C@@H]3C(C)CCCC(C)C)C2)c2cc(Cl)c(OC(=O)c3ccccc3)c(C(=O)OC)c2)cc(Cl)c1OC(=O)c1ccccc1 (stereo partly drawn) | > 200 µM | > 200 µM |  |
| BrC(Br)=C1C(=C(Br)Br)C(Br)C1Br (stereo not drawn) |  |  | inactive |
| CSC1=Nc2cc3c(cc2C(=O)N2C[C@H](O)CC12)OCO3 (stereo partly drawn) | > 200 µM | 110 µM |  |
| Cc1ccc(S(=O)(=O)Nn2c3c(cc(C#N)c2=O)CCC3)cc1 | > 200 µM | > 200 µM |  |
| COc1cc(C=Nc2ccc(Oc3ccc(Cl)cc3)c(Cl)c2)cc(OC)c1OC | > 200 µM | 30.9 µM |  |
| [O-]c1c2c(nn1-c1ccc(Cl)cc1)c1ccccc1c[n+]2Cc1ccccc1 | > 5.13 µM | > 5.13 µM |  |
| O=C1C=CC(=O)c2c(-c3ccccc3[N+](=O)[O-])cc(Cl)nc21 |  |  | inactive |
| CCCCC1(C(=O)OCC)SCCCS1 | > 75.9 µM | > 75.9 µM |  |
| COC(=O)[C@@H]1Cc2ccc(OC)c(c2)OCCC(=O)N1 | > 200 µM | > 200 µM |  |
| O=C1CCCC2=C1C(c1ccncc1)Nc1ccccc1N2 (stereo not drawn) | > 200 µM | > 200 µM |  |
| C=C(Br)C[N+](CC)(CC)CC | > 200 µM | > 200 µM |  |
| Cc1ccc(S(=O)(=O)NNS(C)(=O)=O)cc1 | > 955 µM | 646 µM |  |
| C[Si](C)(c1ccccc1)C1CC(=O)CC(=O)C1 | > 380 µM | 245 µM |  |
| CC(=O)Oc1c(Cl)cc(C(=CCC[C@H]2CC[C@@]3(C)[C@@H](CC[C@@H]4[C@@H]3CC[C@]3(C)[C@@H]([C@H](C)CCCC(C)C)CC[C@@H]43)C2)c2cc(Cl)c(OC(C)=O)c(C(=O)O)c2)cc1C(=O)O | 162 µM | 174 µM |  |
| CCOC(=O)c1c(NC(=O)CCC(=O)Nc2sc(C)c(C)c2C(=O)OCC)sc(C)c1C | > 100 µM | > 100 µM |  |

| Structure (SMILES) | EC50 | IC50 | outcome |
| --- | --- | --- | --- |
| CCCCCC=C(c1cc(Br)cc(C(=O)OC)c1OC)c1cc(Br)cc(C(=O)OC)c1OC | 42.7 µM | 43.7 µM |  |
| COc1cc(-c2ccc(N=Nc3cc(S(=O)(=O)O)c4cccc(S(=O)(=O)O)c4c3N)c(OC)c2)ccc1N=Nc1cc(S(=O)(=O)O)c2cccc(S(=O)(=O)O)c2c1N | 14.1 µM | 89.1 µM |  |
| CC1OC(=O)N2CCC=CC12 (stereo not drawn) |  |  | inactive |
| CC1(C)C(O)C[C@]23CCC[C@](C)(C[C@@H](O)C12)C3 (stereo partly drawn) | > 200 µM | > 200 µM |  |
| O=C(CO[N+](=O)[O-])OC/C=C/c1ccccc1 |  |  | inactive |
| O=S(=O)(c1ccc(N=C=S)cc1)N1CCCCC1 | > 200 µM | 97.7 µM |  |
| OC1c2ccccc2CCC1C(O)(C(F)(F)F)C(F)(F)F (stereo not drawn) | > 200 µM | 85.1 µM |  |
| COC(=O)[C@]12CCC(C)[C@H](C)[C@H]1C1=CCC3[C@@]4(C)CC[C@H](OC(C)=O)C(C)(C)C4CC[C@@]3(C)C1(C)C(O)C2 (stereo partly drawn) |  |  | inactive |
| Cc1ccc(N=Nc2c(C)nn(C(=O)CC(=O)Nc3ccccc3)c2C)cc1C | > 200 µM | > 200 µM |  |
| OCC1COc2cc(Cl)c(Cl)cc2O1 (stereo not drawn) | > 200 µM | 120 µM |  |
| COc1cc([N+](=O)[O-])c(OC)c2c(=O)[nH]c(=O)[nH]c12 | > 47.9 µM | > 47.9 µM |  |
| Cn1nc2ccc([N+](=O)[O-])c(Cn3nnc4ccccc43)c2n1 | > 200 µM | 58.9 µM |  |
| Cc1c(C(=O)c2ccccc2)n(COCCCO[Si](C)(C)C(C)(C)C)c(=O)[nH]c1=O | > 200 µM | 11.7 µM |  |
| O=C1OC(C(O)CO)C(O)=C1Nc1ccc(S(=O)(=O)c2ncc(NC3=C(O)C(C(O)CO)OC3=O)s2)cc1 (stereo not drawn) | > 200 µM | 21.9 µM |  |
| Cc1nccc2c(C(=O)O)c(C(=O)O)[nH]c12 | > 170 µM | > 170 µM |  |
| O=C1C(Br)=CC2(C=C1Br)CCNc1c(O)c3c4c(c12)=NCCC=4C=N3 | > 2 µM | 0.0891 µM |  |
| Cc1nn(C(=O)c2ccccc2O)c2c1C(c1ccco1)SC(N)=N2 (stereo not drawn) | > 20 µM | 1.23 µM |  |
| COc1ccc(-n2cnc3c(NC(Cc4ccccc4)C(=O)O)ncnc32)cc1 (stereo not drawn) | > 200 µM | 2 µM |  |
| C1CSCCCSCCCSCCCSCCCSCCCSCCCSCCCSC1 | > 8.71 µM | > 8.71 µM |  |
| CC(C)OC1CC(C)(C)c2c(-c3ccccc3)nn(-c3ccccc3)c2O1 (stereo not drawn) | > 61.7 µM | 38 µM |  |
| CCCCc1c2c(nc3c1CC/C(=C\c1ccccc1)C3=O)CCCC2 | > 4.17 µM | 3.31 µM |  |

| Structure (SMILES) | EC50 | IC50 | outcome |
| --- | --- | --- | --- |
| Oc1c(CN2CCCCC2)ccc2ccccc12 | > 200 µM | 186 µM |  |
| Cc1ccc(SSc2ccc(C(C)(C)C)cc2)cc1 | > 200 µM | 4.27 µM |  |
| S=C1SCN2CCN3CSC(=S)N(CCN1C2)C3 | > 81.3 µM | > 81.3 µM |  |
| C=C1C(=O)O[C@@H]2C=C(C)C3=CC(=O)[C@](C)(C[C@H](OC(=O)/C(C)=C\C)[C@@H]12)O3 | > 5.37 µM | 0.224 µM |  |
| NCCNCCN1C(=O)c2cccc3cccc(c23)C1=O | > 200 µM | 7.59 µM |  |
| NCCCNc1ccc2c(c1)[n+]([O-])c1ccccc1[n+]2[O-] | > 437 µM | 10.2 µM |  |
| O=C1C(=O)N(c2nccs2)C(=O)C(=O)C1c1nc2ccccc2s1 | > 100 µM | > 100 µM |  |
| Brc1ccc(C2CC3(c4ccccc4)ON=C(c4ccccc4)N3c3ccccc3S2)cc1 (stereo not drawn) | > 200 µM | 174 µM |  |
| Cc1ccc(OCCn2cc(Nc3ccccc3)c(=O)[nH]c2=O)cc1 | > 200 µM | > 200 µM |  |
| O=C(O)CNC(=O)C(CSC(=O)OCC1c2ccccc2-c2ccccc21)NC(=O)CCC(NC(=O)OCC1c2ccccc2-c2ccccc21)C(=O)O (stereo not drawn) | > 200 µM | 107 µM |  |
| Cc1noc(NS(=O)(=O)c2ccc(N=c3c4ccccc4n(Cc4ccccc4)c4ccccc34)cc2)c1C |  |  | inactive |
| CC(C)(CO)CNc1cc(Cl)nc(N)n1 | > 200 µM | > 200 µM |  |
| CC(=O)OC1C=CC(OC(C)=O)C2C1[C@H]1C3C=CC=CC3[C@@H]2S1=O (stereo partly drawn) | > 200 µM | 112 µM |  |
| COC1=CC(=O)O[C@]2(C)OCC(C)C(O)=C12 (stereo partly drawn) | > 1100 µM | > 1100 µM |  |
| O=C1NC(=O)C(=CN2C(=O)/C(=C/c3ccc(O)cc3)SC2=S)C(=O)N1 | > 200 µM | 41.7 µM |  |
| CC(=O)OCCOCn1c2c(c(=O)[nH]c1=O)CCC2 | > 200 µM | > 200 µM |  |
| O=C1OC(O)C(Oc2ccc(Cl)cc2)=C1Cl (stereo not drawn) | > 437 µM | 195 µM |  |
| O=C(O)c1ccc(N=NC2Sc3nc4ccccc4n3C2=O)cc1 (stereo not drawn) | > 200 µM | > 200 µM |  |
| CCCC(N)S(=O)(=O)O (stereo not drawn) | > 200 µM | > 200 µM |  |
| O=C1C2C3C=C4c5ccccc5N(c5ccccc5)C4([C@@H]2C(=O)N1c1ccc(F)cc1)[C@H]1C(=O)N(c2ccc(F)cc2)C(=O)[C@@H]31 (stereo partly drawn) | > 12 µM | > 12 µM |  |

Source: PubChem BioAssay AID179 (DTP/NCI, 2004)
